{"source": "patent US11576901B2", "about": "“Methods for treating viral infection” (HOWARD UNIVERSITY, priority 2016, dated 2023)", "format_in_all_cases": "cell-based", "key": {"[1]": {"test_system": "HIV1 modified pNL4-3.Luc.R-E-virus", "test": "Western assay of HIV p24 gag expression in infected CEM T cells", "details": "Western assay with HIV p24 antibody, FIG. 4", "description": "The ability of a compound in accordance with General Formula 1, including derivatives in accordance with General Formulae 1-1 to 1-20, or pharmaceutically acceptable salts thereof, to inhibit the expression of at least a portion of a virus genome containing an IRES sequence can be also be determined by assessing the expression of a native protein within a viral genome. In some embodiments, the ability of a compound or pharmaceutically acceptable salt to inhibit expression of native protein can be assessed by using antibodies for a protein normally expressed from the virus genome. For example, HIV p24 gag is a protein normally expressed by HIV1 that can be detected using the HIVI p24 antibody. Accordingly, compounds in accordance with General Formula 1, including derivatives in accordance with any of General Formulae 1-1 to 1-20, or pharmaceutically acceptable salts thereof, can be assessed for the ability to inhibit proliferation of the HIV1 by infecting CEM T cells with the HIV1 modified pNL4-3.Luc.R-E-virus and assessing the expression of HIV p24 gag with the HIV p24 antibody. […]\nA compound or salt may be wrongly classified as capable of inhibiting expression of at least a portion of a virus genome containing an IRES sequence due to unequal loading of proteins within an assay. […] In some embodiments, equivalent protein loading can be assessed by ponceau staining. […]"}, "HSV-1": {"test_system": "HSV-1", "test": "qPCR of ICP-0 mRNA in HSV-1 infected Hep-2 cells", "details": "100 μM, 24 hours pretreatment, 0, 6, 12 and 24 hours after infection, vs DMSO, FIG. 8", "description": "The inhibition of triggered expression of at least a portion of the HSV-1 genome and the inhibited proliferation of HSV-1, which may be the result of the former, indicate that compounds in accordance with General Formula 1, including derivatives in accordance with any of General Formulae 1-1 to 1-20, can treat viral infections. The treatment provided by compounds in accordance with General Formula 1, including derivatives in accordance with any of General Formulae 1-1 to 1-20, may be the result of either inhibition of transcription of viral mRNAs containing an IRES or the inhibited expression of viral proteins encoded by such within the IRES reading frame of such an mRNA. Determining whether mRNA transcription or protein expression is being inhibited can be accomplished by assessing the amount of mRNA containing an IRES is diminished by treatment with a compound in accordance with General Formula 1, including derivatives in accordance with any of General Formulae 1-1 to 1-20. FIG. 8 reports the amount of mRNA of the IE gene ICP-0 detected in Hep-2 cells following treatment with SD-29.\nHep-2 cells were pretreated with either DSMO as a control, 100 μM SD-29 or 100 μM SD29-12. After 24 hours of pretreatment, the Hep-2 cells were infected with HSV-1. At 0, 6, 12 and 24 hours after infection, the total RNA within the cells was isolated. […]"}, "[2]": {"test_system": "HIV1 modified pNL4-3.Luc.R-E-virus", "test": "Luciferase luminescence of CEM T cells infected with HIV1 modified pNL4-3.Luc.R-E-virus", "design": "dose or concentration left out as unconfirmed", "details": "CEM T cells pretreated before infection; vs untreated and DMSO; FIG. 2", "description": "The expression of the protein assessed may be native, i.e. naturally occurring within the genome of the virus to be treated. In combination or the alternative, expression of a protein introduced to the viral genome may be assessed. Assessing the expression of an introduced protein may enable an assessment of viral proliferation by means not normally permitted by the native viral genome. For example, proliferation of the HIV1 virus can be assessed using luminescence with the HIV1 modified pNL4-3.Luc.R-E-virus. […] Accordingly, proliferation of the HIV1 modified pNL4-3.Luc.R-E-virus will entail production of the luciferase protein. […]\nAccordingly, compounds in accordance with General Formula 1, including derivatives in accordance with General Formulae 1-1 to 1-20, or pharmaceutically acceptable salts thereof, can be assessed for the ability to inhibit proliferation of the HIV1 by infecting CEM T cells with the HIV1 modified pNL4-3.Luc.R-E-virus. […]\nPrior to infection with the HIV1 modified pNL4-3.Luc.R-E-virus, the CEM T cells were pretreated with either SD-29 or DMSO ([…]) or left untreated. […] To assess luminescence, 100 μL of the cell suspension and […] of reconstituted luciferase buffer (Luclite Kit, Perkin Elmer) were added to wells and allowed to incubate for 10 minutes. […]"}}}
{"smiles": "Nn1c(S)nnc1-c1ccc(F)cc1", "note": "[SD-29]", "values": [{"measurement": "expression of HIV p24 gag", "setting": "[1]", "value": "does inhibit expression"}, {"measurement": "ICP-0 mRNA level / transcription of IE genes", "setting": "HSV-1", "value": "does not inhibit transcription of mRNA corresponding to IE genes"}, {"measurement": "luminescence / proliferation of the HIV1 modified pNL4-3.Luc.R-E-virus", "setting": "[2]", "value": "significantly reduced proliferation"}]}
